Assay [1] deals with Pseudomonas aeruginosa ATCC 27853 biofilm. Briefly: MBEC assay (biofilm eradication, CFU log reduction). The assay is classed as cell-based, P. aeruginosa. To be noted: for minimal effective concentration: Pseudomonas aeruginosa, read-out: P. aeruginosa MBEC mM with log reduction ≥1. As to the method:
(§1) The exact weighed amount was noted and the volume of solvent to reach a 80 mM dilution calculated. Half of the volume was added first, by adding Tween 80. In a second step, the other half of the volume DMSO was added and the closed tube inverted 5-10 times and then vortexed very thoroughly for at least 30 seconds. If after this procedure unsolved material was still visible, the tube was placed in a shaker at 37° C. at 150 rpm for at least 30 minutes. […] For the MBEC assay (method 1.3) the solution needs to be diluted to a final concentration of 2 mM in 0.9% saline solution and then further diluted to 1 mM, 0.5 mM, 0.25 mM and 0.125 mM in saline. Those dilutions were added as treatment to the 96 well plates with the grown biofilm (see method 3).
(§2) Frozen aliquots of Staphylococcus epidermis ATCC 35984 and Pseudomonas aeruginosa ATCC 27853 were used to inoculate 20 mL of Tryptic Soy Broth (TSB) in a 100 mL Erlenmeyer flask at 37° C. and 150 rpm and incubated overnight (Infors). The OD600 of the overnight culture was measured with a spectrophotometer (Evolution™ 201/220 UV-Visible Spectrophotometer, Thermo Fisher Scientific) and diluted to an OD600 of 0.2, which resembles 10^8 CFU/mL. The cell suspension of OD600=0.2 was seeded into a U-bottom-shaped 96 well plates by pipetting 100 μL per well in column 1-11, column 12 was filled with 100 μL medium as sterility control. The 96 well plates were sealed with adhesive polyethylene film for sealing microplates and incubated for 48 h at 37° C. at static conditions. After the biofilm growth phase, 100 μL of treatment solutions (method 1) were added to the vials resulting in treatment concentrations of 1 mM, 0.5 mM, 0.25 mM and 0.125 mM and with the respective concentration of Tween 80 and DMSO each at 0.63%, 0.32%, 0.16% and 0.08%. The same concentration was applied to four different wells of the same bacterial strain, resulting in four replicates for each concentration and strain. The treatment was incubated for 20 h at 37° C. at static conditions. After the treatment the supernatant was carefully removed and the well with the biofilm washed carefully for one time with 200 μL 0.9% saline solution. 200 μL saline solution was added and the biofilm was resuspended thoroughly. When fully homogenized then 20 μL was used for the first dilution in 180 μL 0.9% saline solution, which was prepared in a second plate. This dilution was continued until dilution step 10E−5 and 100 μL of the 10E−4 and 10E−5 dilution plated on a TSA plate. The TSA plates were incubated at 37° C. for 24 h. The colonies on the plates were enumerated, the colony forming units per mL of the dispensed biofilm and averages thereof and the log reduction in comparison with the untreated sample from the same wells plate calculated. Reduction of colony forming units goes hand in hand with the thickness of the biofilm and thus with the number bacteria that are present in the biofilm. Therefore, a significant reduction of colony forming units in the biofilm was defined at the value of log reduction ≥1 or more. This assay was repeated two times in two independent experiments)

Assay [2] concerns Staphylococcus epidermis ATCC 35984 biofilm. Described as above. The format is cell-based, S. epidermidis. To be noted: for minimal effective concentration: read-out: S. epidermidis MBEC mM with log reduction ≥1. The procedure:
as §1, §2

Assay [3] deals with Staphylococcus epidermis ATCC 35984. Briefly: MIC assay (planktonic growth inhibition, OD600). The assay is classed as cell-based, S. epidermidis. To be noted: for IC50: read-out: S. epidermidis MIC50; for IC90: read-out: S. epidermidis MIC90. As to the method:
as §1
(§3) Frozen aliquots of Staphylococcus epidermis ATCC 35984 and Pseudomonas aeruginosa ATCC 27853 were used to inoculate a tryptic soy agar (TSA) plate and incubated overnight at 37° C. After incubation 3-5 well-isolated colonies with the same morphology were selected from the TSA plate and resuspended in 2 mL 0.9% saline solution with 3-6 glass beads and vortexed. The optical density at 600 nm (OD600) of the bacterial suspension was measured with a spectrophotometer (Evolution™ 201/220 UV-Visible Spectrophotometer, Thermo Fisher Scientific) and diluted to an OD600 of 0.0008, which resembles 10^6 CFU/mL.
(§4) The MIC assay was performed in a flat-bottom 96-microtiter plate. 50 μL of MHB-II was added into columns 2-11, and 100 μL to column 12 for sterility control. 100 μL of the 8 mM test compound solution (method 1) was added to column 1. A two-fold dilution series of the solution in MHB-II was achieved by resuspending 50 μL of the 8 mM solution from column 1 to column 2. This step was repeated until column 10. The respective concentration of Tween 80 and DMSO in column 1 was 2.5%, which is two-fold diluted throughout the plate. 50 μL of the bacterial suspension was added to column 1-11. The microtiter plates were sealed with adhesive polyethylene film for sealing microplates (Diversified Biotech) and incubated for 24 h at 37° C. After incubation the OD was measured at 600 nm with the Varioskan (Thermo Fisher Scientific). […] This assay was repeated three times in three independent experiments.

In assay [4] the test system is udder cleft wound. The assay can be described thus: In vivo udder cleft dermatitis test: wound assessment after spray treatment. On the set-up: species or system cow. To be noted: over 60 days, all cows of the group. The procedure: An example of a biofilm-related disorder is Udder Cleft Dermatitis (UCD), which relates to a chronic wound. In this Example, di-alkyl thiosulfonates, dialkyl thiosulfinates and di-alkyl disulfides were tested for their effect on cows affected by UCD.
Experiments were performed to examine the effect of various sprays containing water (control), a test compound, or a reference compound (CTC spray, which contains chlorotetracycline hydrochloride, and was obtained from Dechra veterinary products).
0.35 mL of the spray was sprayed on an udder cleft wound per treatment. Treatments took place once a day at t=0, at t=3 days and t=6 days. In Table 6, the assessment qualifications that are used in Table 7, are explained.

Assay [5] relates to Pseudomonas aeruginosa ATCC 27853. The assay can be described thus: MIC assay (planktonic growth inhibition, OD600). The assay is classed as cell-based, P. aeruginosa. To be noted: for IC50 / IC90: Pseudomonas aeruginosa; for IC50: read-out: P. aeruginosa MIC50; for IC90: read-out: P. aeruginosa MIC90. The procedure:
as §1, §3, §4

The test system of assay [6] is Staphylococcus epidermis ATCC 35984 biofilm. Briefly: MBIC assay (biofilm inhibition, crystal violet). The assay is classed as cell-based, S. epidermidis. To be noted: 48 h incubation, absorbance 540 nm. The procedure: as §1
(§5) Frozen aliquots of Staphylococcus epidermis ATCC 35984 and Pseudomonas aeruginosa ATCC 27853 were used to inoculate a tryptic soy agar (TSA) plate and were incubated overnight at 37° C. After incubation 3-5 well-isolated colonies with the same morphology were selected from the TSA plate and resuspended in 2 mL 0.9% saline solution with 3-6 glass beads and vortexed. The optical density of the bacterial suspension was measured at 600 nm (OD600) with a spectrophotometer (Evolution™ 201/220 UV-Visible Spectrophotometer, Thermo Fisher Scientific) and diluted to an OD600 of 0.2. The MBIC assay was performed in a 96-microtiter plate. 50 μL of TSB was added into columns 2-11, and 100 μL to column 12 for sterility control. 100 μL of the 8 mM test compound solution (method 1) was added to column 1. A two-fold dilution series of the solution in TSB was achieved by resuspending 50 μL of the 8 mM solution from column 1 in column 2. This step was repeated until column 10. The respective concentration of Tween 80 and DMSO in column 1 is at 2.5%, which is two-fold diluted throughout the plate. 50 μL of the bacterial suspension was added to column 1-11. The microtiter plates were sealed with adhesive polyethylene film for sealing microplates (Diversified Biotech) and incubated for 48 h at 37° C. After incubation the supernatant is carefully removed and the well with the biofilm washed for one time with 100 μL 0.9% saline solution. 100 μL 0.1 M HCl was added and incubated for 1 h at room temperature to fix the biofilm. After incubation the HCl was removed and 100 μL crystal violet (0.1% v/v in water) was added and incubated for 30 min at room temperature. The unbound crystal violet was removed and the wells washed one time with 100 μL demineralized water. 100 μL 30% acetic acid was added and incubated for 1 h at 37° C. and 150 rpm. The solution was resuspended and transferred to a flat-bottom 96-well plate and the absorbance measured at 540 nm with the spectrophotometer. This assay was repeated two times in two independent experiments.

Assay [7] has as its system Pseudomonas aeruginosa ATCC 27853 biofilm. The assay can be described thus: MBIC assay (biofilm inhibition, crystal violet). To be noted: 48 h incubation, absorbance 540 nm. The assay is classed as cell-based, P. aeruginosa. The procedure:
as §1, §5

Setting [8] is: ATCC27853, 48 h grown biofilm, 20 h treatment, CFU log reduction vs untreated.
Where [9] appears, read: 48 h grown biofilm, 20 h treatment, CFU log reduction vs untreated.
[10] abbreviates: minimal concentration reducing final OD600 by 50%, 24 h at 37° C.
The mark [11] stands for this setting: minimal concentration reducing final OD600 by 90%, 24 h at 37° C.
Where [12] appears, read: ATCC27853, minimal concentration reducing final OD600 by 50%, 24 h at 37° C.
Where [13] appears, read: ATCC27853, minimal concentration reducing final OD600 by 90%, 24 h at 37° C.

The source of these data is patent US20240374535A1, “COMPOSITIONS AND METHODS FOR TREATING BIOFILM DISORDERS AND INFECTIONS” (AHV International B.V., priority 2021, published 2024).

Each structure is given as a SMILES string. Read-outs that look alike come from different tables or passages of the source. Bounds are passed on as bounds.

As to `COc1ccc(SSc2ccc(OC)cc2)cc1` [Bis (4-methoxyphenyl) disulfide, Bis(4-methoxyphenyl) disulfide], the minimal effective concentration in assay [1] (setting [8]) and in assay [2] (setting [9]) was over 1 mM in each case. Moreover, the IC50 in assay [3] (setting [10]) and in assay [5] (setting [12]) was over 4 mM throughout. In addition, the IC90 in assay [3] (setting [11]) and in assay [5] (setting [13]) was over 4 mM throughout. In addition, the “Conclusion (effect on udder cleft wound)” value in assay [4] is listed as “No effect”.

For `CC(C)S[S+]([O-])C(C)C` (centres unmarked) [Di-isopropyl thiosulfinate], in assay [1] (setting [9]), the “P. aeruginosa MBEC mM with log reduction ≥1” value came out at 0.125 mM. Further, the “S. epidermidis MBEC mM with log reduction ≥1” value in assay [2] (setting [9]) was 0.5 mM. In assay [3] (setting [10]), the “S. epidermidis MIC50” value stood at 2000 µM. Moreover, the “S. epidermidis MIC90” value in assay [3] (setting [11]) came to 2000 µM. Further, in assay [6], the “S. epidermidis MBIC90” value was over 4 mM. Moreover, in assay [7], the “P. aeruginosa MBIC90” value was over 4 mM. In addition, the “P. aeruginosa MIC50” value in assay [5] (setting [10]) worked out at 2000 µM. The “P. aeruginosa MIC90” value in assay [5] (setting [11]) is 4000 µM.

Consider `CCCCSSCCCC` [Di-n-butyl disulfide], for which the minimal effective concentration in assay [1] (setting [8]) and in assay [2] (setting [9]) was over 1 mM throughout. Further, the IC50 in assay [3] (setting [10]) and in assay [5] (setting [12]) was over 4 mM in each case. The IC90 in assay [3] (setting [11]) and in assay [5] (setting [13]) was over 4 mM throughout. The “Conclusion (effect on udder cleft wound)” value in assay [4] was “No effect”.

Consider `Cc1ccc(S[S+]([O-])c2ccc(C)cc2)cc1` (centres unmarked) [Bis (p-tolyl) thiosulfinate], for which the “P. aeruginosa MBEC mM with log reduction ≥1” value in assay [1] (setting [9]) was 1 mM. Besides, the “S. epidermidis MBEC mM with log reduction ≥1” value in assay [2] (setting [9]) turned out to be 1 mM. The “S. epidermidis MIC50” value in assay [3] (setting [10]) came out at 125 µM. For the same compound, the “S. epidermidis MIC90” value in assay [3] (setting [11]) is 250 µM. Besides, the “S. epidermidis MBIC90” value in assay [6] was over 4 mM. In assay [7], the “P. aeruginosa MBIC90” value is over 4 mM. For the same compound, the “P. aeruginosa MIC50” value in assay [5] (setting [10]) came out at 125 µM. Besides, in assay [5] (setting [11]), the “P. aeruginosa MIC90” value stood at 250 µM.

On to `CCS[S+]([O-])CC` (centres unmarked) [Di-ethyl thiosulfinate, S-ethyl ethanesulfinothioate], for which the “Conclusion (effect on udder cleft wound)” value in assay [4] was “No effect”.

Consider `c1ccc(SSc2ccccc2)cc1` [Di-phenyl disulfide], for which the minimal effective concentration in assay [1] (setting [8]) was 0.125 mM; in assay [2] (setting [9]), over 1 mM. Moreover, the IC50 in assay [3] (setting [10]) amounted to 0.125 mM; in assay [5] (setting [12]), 2 mM. Also, the IC90 in assay [3] (setting [11]) and in assay [5] (setting [13]) was over 4 mM throughout. The “Conclusion (effect on udder cleft wound)” value in assay [4] is “No effect”.

As to `Fc1ccc(SSc2ccc(F)cc2)cc1` [Bis (4-fluorophenyl) disulfide], the minimal effective concentration in assay [1] (setting [8]) and in assay [2] (setting [9]) was over 1 mM throughout. Moreover, the results for the IC50 in assay [3] (setting [10]) and in assay [5] (setting [12]) were 0.06 mM and 0.125 mM, respectively. Besides, the IC90 in assay [3] (setting [11]) turned out to be 0.06 mM; in assay [5] (setting [13]) it was 0.25 mM. For the same compound, the “Conclusion (effect on udder cleft wound)” value in assay [4] is reported as “No effect”.

In the case of `CC(C)SSC(C)C` [Di-isopropyl disulfide], the minimal effective concentration in assay [1] (setting [8]) and in assay [2] (setting [9]) was over 1 mM each time. In addition, the IC50 in assay [3] (setting [10]) and in assay [5] (setting [12]) was over 4 mM throughout. Moreover, the IC90 in assay [3] (setting [11]) and in assay [5] (setting [13]) was over 4 mM in each case. The “Conclusion (effect on udder cleft wound)” value in assay [4] is recorded as “No effect”.

With `c1ccc(CSSCc2ccccc2)cc1` [Di-benzyl disulfide], the minimal effective concentration was over 1 mM in assay [1] (ATCC27853, 20 h) and over 1 mM in assay [2] (20 h). Moreover, the IC50 was over 4 mM in assay [3] (24 h) and over 4 mM in assay [5] (ATCC27853, 24 h). Further, the IC90 is over 4 mM in assay [3] (24 h) and over 4 mM in assay [5] (ATCC27853, 24 h). Also, the “Conclusion (effect on udder cleft wound)” value in assay [4] was “No effect”.
